Data published in patent publication US20080287299A1, “Use of Imidazole and/or Triazole Derivatives for Combating Plant Pests; as Well as Method for Controlling Diseases/Insects/Mites/Nematodes and Weeds, Particularly Foliar and/or Soil Diseases” (priority 2005, published 2008).

Tests used:
[1] = tested on: Phakopsora pachyrhizi; assay: Greenhouse soybean rust test, plants at V6 stage, evaluated every 5 days; type: in vivo; details: for SEVERITY OF RUST (% IFA) 5 DAT / SEVERITY OF RUST (% IFA) 10 DAT / SEVERITY OF RUST (% IFA) 15 DAT: soybean
Source text: Recent tests carried out in greenhouses the laboratory of FMC Quimica do Brasil Ltda. in Uberaba, MG, Brazil, show the highly fungicidal effect of said specific imidazole and/or triazole derivatives in combating diseases of plants, particularly against the attack by the fungus Phakopsora pachyrhizi on soybeans, as described hereinafter. […]
(§1) Equipment: a manual sprayer commonly used in agriculture with 2-liter capacity.
Dosages: 50 to 500 grams per hectare of the active compound Fluconazole per liter diluted in water.
Evaluations of the Effectiveness of the Product: The evaluations were made every 5 days after application of the product, in a total of 4 evaluations. As an evaluation parameter one utilized the severity of the disease (percentage of foliar area attacked by rust) according to the diagrammatic scale of the EMBRAPA (FIG. 1). […]
Dosages: 50 to 500 grams per hectare of the active compound Itraconazole per liter diluted in water.

[2] = tested on: Phakopsora pachyrhizi; assay: Greenhouse soybean rust test, plants at V5 stage, evaluated every 7 days; type: in vivo; details: for SEVERITY OF RUST (% IFA) 7 DAT / SEVERITY OF RUST (% IFA) 14 DAT / SEVERITY OF RUST (% IFA) 21 DAT / SEVERITY OF RUST (% IFA) 28 DAT: soybean
Source text: Recent tests carried out in greenhouses the laboratory of FMC Quimica do Brasil Ltda. in Uberaba, MG, Brazil, show the highly fungicidal effect of said specific imidazole and/or triazole derivatives in combating diseases of plants, particularly against the attack by the fungus Phakopsora pachyrhizi on soybeans, as described hereinafter.
Experimental Outline Experimental Outline: entirely made with five repetitions, two plants per repetition, totaling 10 plants.
a) Preventive Mode: 30 days after plantation of the soybeans in plastic 2-liter pots and with corresponding volumes of soil, the soybean plants were at the V5 stage with six expanded folioles. At this moment, the compounds were sprayed and then, 48 hours afterwards, inoculation of the rust was effected. To effect the inoculation, one prepared a suspension of Phakopsora uredospores at the concentration of 2×10^4 spores/milliliters.
b) Healing mode: 30 days after plantation of the soybeans in 2-liter plastic pots and with a corresponding volume of soil, the soybean plants were at the V5 stage with six expanded folioles. At this moment, one effected the inoculation of the rust and then, 48 hours afterwards, the compounds were sprayed. To effect the inoculation, one prepared a suspension of Phakopsora uredospores at the concentration of 2×10^4 spores/milliliters.
as §1
Dosages: 50 to 300 grams per hectare of the active compound Itraconazole per liter diluted in water.
Evaluations of the Effectiveness of the Product: The evaluations were made every 7 days after application of the product, in a total of 4 evaluations. As an evaluation parameter one utilized the severity of the disease (percentage of foliar area attacked by rust) according to FIG. 1).
Dosages: 50 to 300 grams per hectare of the active compound Voriconazole per liter diluted in water.

[3] = from 50 grams of active ingredient per hectare

## CCC(C)n1ncn(-c2ccc(N3CCN(c4ccc(OC[C@H]5CO[C@](Cn6cncn6)(c6ccc(Cl)cc6Cl)O5)cc4)CC3)cc2)c1=O (mixture of isomers) [Itraconazole, 4-[4-[4-[4-[[2-(2,4-dichlorophenyl)-2-(1H-1,2,4-triazol-1-ylmethyl)-1,3-dioxolan-4-yl]methoxy]phenyl]-1-pipera-zinyl]phenyl]-2,4-dihydro-2-(1-methylpropyl) 3H-1,2,4-triazol-3-one]
[1]; Table 3: 50 g ac/ha
  SEVERITY OF RUST (% IFA) 5 DAT: 6 % IFA
  SEVERITY OF RUST (% IFA) 10 DAT: 12 % IFA
  SEVERITY OF RUST (% IFA) 15 DAT: 11 % IFA
[1]; Table 3: 100 g ac/ha
  SEVERITY OF RUST (% IFA) 5 DAT: 5 % IFA
  SEVERITY OF RUST (% IFA) 10 DAT: 13 % IFA
  SEVERITY OF RUST (% IFA) 15 DAT: 10 % IFA
[1]; Table 3: 150 g ac/ha
  SEVERITY OF RUST (% IFA) 5 DAT: 5 % IFA
  SEVERITY OF RUST (% IFA) 10 DAT: 13 % IFA
  SEVERITY OF RUST (% IFA) 15 DAT: 10 % IFA
[1]; Table 3: 250 g ac/ha
  SEVERITY OF RUST (% IFA) 5 DAT: 3 % IFA
  SEVERITY OF RUST (% IFA) 10 DAT: 14 % IFA
  SEVERITY OF RUST (% IFA) 15 DAT: 10 % IFA
[1]; Table 3: 500 g ac/ha
  SEVERITY OF RUST (% IFA) 5 DAT: 0 % IFA
  SEVERITY OF RUST (% IFA) 10 DAT: 10 % IFA
  SEVERITY OF RUST (% IFA) 15 DAT: 0 % IFA
[1]; [3]
  effective in controlling soybean rust: effective in controlling soybean rust

## C[C@@H](c1ncncc1F)[C@](O)(Cn1cncn1)c1ccc(F)cc1F (relative stereo) [Voriconazole, alpha-(2,4-difluorophenyll)-5-fluor-beta-methyl-alpha-(1H-1,2,4-triazol-1-yllmethyl)-(R—(R*,S*))-4-pirimidinetanole]
[2]; Table 5: 50 g ac/ha
  SEVERITY OF RUST (% IFA) 7 DAT: 8 % IFA
  SEVERITY OF RUST (% IFA) 14 DAT: 10 % IFA
  SEVERITY OF RUST (% IFA) 21 DAT: 10 % IFA
  SEVERITY OF RUST (% IFA) 28 DAT: 13 % IFA
[2]; Table 5: 100 g ac/ha
  SEVERITY OF RUST (% IFA) 7 DAT: 8 % IFA
  SEVERITY OF RUST (% IFA) 14 DAT: 8 % IFA
  SEVERITY OF RUST (% IFA) 21 DAT: 11 % IFA
  SEVERITY OF RUST (% IFA) 28 DAT: 18 % IFA
[2]; Table 5: 150 g ac/ha
  SEVERITY OF RUST (% IFA) 7 DAT: 8 % IFA
  SEVERITY OF RUST (% IFA) 14 DAT: 8 % IFA
  SEVERITY OF RUST (% IFA) 21 DAT: 10 % IFA
  SEVERITY OF RUST (% IFA) 28 DAT: 18 % IFA
[2]; Table 5: 200 g ac/ha
  SEVERITY OF RUST (% IFA) 7 DAT: 4 % IFA
  SEVERITY OF RUST (% IFA) 14 DAT: 7 % IFA
  SEVERITY OF RUST (% IFA) 21 DAT: 11 % IFA
  SEVERITY OF RUST (% IFA) 28 DAT: 11 % IFA
[2]; Table 5: 300 g ac/ha
  SEVERITY OF RUST (% IFA) 7 DAT: 2 % IFA
  SEVERITY OF RUST (% IFA) 14 DAT: 0 % IFA
  SEVERITY OF RUST (% IFA) 21 DAT: 1 % IFA
  SEVERITY OF RUST (% IFA) 28 DAT: 5 % IFA
[2]; [3]
  effective in controlling soybean rust: effective in controlling soybean rust
